In patent US12594278B2, “Method for treatment of muscular dystrophy” (CHILDREN'S NATIONAL MEDICAL CENTER, priority 2019, dated 2026):

How the values were obtained:
[1] = test system: cultured adipogenic precursors and WT mouse FAPs; settings: previously shown; cited from earlier work
[2] = test system: B6A/J mice; assay: 10-week batimastat treatment of 12Mo B6A/J mice, gastrocnemius histopathology; type: in vivo, mouse
Experimental: Whether this effect of batimastat to repress FAP adipogenesis can improve muscle histopathology was tested in vivo. 12Mo B6A/J mice were treated for 10 weeks with batimastat (2 mg/kg i.p. 3× weekly). […] To determine if this reduction in adipogenic replacement was due to an effect on just FAP differentiation or also on FAP proliferation, FAP accumulation was quantified by PDGFRα labeling and no effect of batimastat treatment on FAP number was found (FIG. 12). […] Thus, inhibition of adipogenesis by batimastat is not due to reduced FAP numbers or improved myofiber repair. To further confirm the ability of batimastat to prevent dysferlinopathic muscle from injury-triggered FAP adipogenesis, we employed the repeat notexin-induced TA injury approach which induces significant adipogenic replacement of the muscle (FIG. 6D and FIG. 6E). […] Given that FAP numbers are unaffected by batimastat treatment, it was examined whether these batimastat treatment causes cells to adopt a fibrogenic fate by blocking their adipogenic differentiation. However, no change in intra-muscular fibrosis was observed as a result of batimastat treatment in either the gastrocnemius or injured TA (FIG. 12). Taken together, the above results both confirm the essential nature of FAP adipogenesis for the adipogenic conversion of dysferlinopathic muscle, and highlight the potential of batimastat to arrest the progressive and even late stage adipogenic replacement of dysferlinopathic muscle.
Immunohistochemical Analysis of Muscle Sections. Frozen sections 8 μm thick were cut from human biopsies and the midbelly of mouse muscles. Lipid was visualized using an Oil Red O staining kit (American MasterTech, #KTORO) according to manufacturer's instructions. […]
Microscopy and Image Analysis. […] Perilipin-1 quantification was performed by thresholding the image to exclude non-specific staining and then calculating the area of each lipid deposit encircled by perlipin-1 (excluding those in the epi- or perimysium) using MetaMorph software (Molecular Devices). The total area encircled by perilipin-1 was calculated for all lipid deposits across the muscle and expressed relative to the total cross-sectional area. PDGFRα and AnxA2 positive area was calculated using CellSens software (Olympus) by thresholding to remove non-specific staining and calculating the total positive area (again, excluding any epi- or perimysial staining) relative to the entire muscle cross-section.
For in vivo studies, 12Mo B6A/J mice were treated thrice weekly with batimastat (Sigma-Aldridge, #SML0041), 2 mg/kg i.p. for 10 weeks. At the end of the treatment period, the effect of batimastat on disease pathology was evaluated by quantification of perilipin-1 marked lipid area in the gastrocnemius and compared to untreated controls. […]

[3] = 12Mo B6A/J mice, 2 mg/kg i.p. 3× weekly for 10 weeks

CNC(=O)[C@H](Cc1ccccc1)NC(=O)[C@H](CC(C)C)[C@H](CSc1cccs1)C(=O)NO [batimastat]
adipogenesis of cultured adipogenic precursors and WT mouse FAPs [1]: restrict adipogenesis | FAP number (PDGFRα labeling) in gastrocnemius [2, 3]: no effect | extent of myofiber central nucleation [2, 3]: did not decrease | perilipin-1 labeled area in gastrocnemius ([2]; 12Mo B6A/J mice, 2 mg/kg i.p. 3× weekly for 10 weeks, vs untreated mice): significantly reduced | intra-muscular fibrosis in gastrocnemius (Masson's trichrome) ([2]; batimastat 2 mg/kg i.p. 3× weekly for 10 weeks): no change
